Experiments:
[1] = tested on: HEp-2 cells; assay: Impairment in colony formation capability; format: cell-based, human; conditions: phosphoric acid buffer (FIG. 7)
[2] = tested on: MDCK cells; assay: Impairment in colony formation capability; format: cell-based, canine; conditions: phosphoric acid buffer (FIG. 7)
[3] = tested on: HEp-2 cells; conditions: human, 20 min
[4] = tested on: feline caliciviruses; assay: Sterilizing solution wrung from wet wipe, feline caliciviruses (Example 11)
[5] = tested on: feline calicivirus F4 strain; assay: In vitro test in test tube, feline caliciviruses (Example 11); format: cell-based

OCl [Sodium hypochlorite aqueous solution, sodium hypochlorite]
concentration at which impairment in colony formation was observed [1]: ≤ 5 ppm | concentration at which impairment in colony formation was observed [2]: ≤ 5 ppm | concentration that generated dead cells [3]: about 0.5 ppm | number of infectious viruses ([4]; solution from wet wipe, 500 ppm (formulation 60 times), contact 1 min): 3.5 ± 2.1 CPU/mL | number of infectious viruses ([4]; solution from wet wipe, 500 ppm (formulation 60 times), contact 5 min): 2.9 ± 2.7 CPU/mL | number of infectious viruses ([4]; solution from wet wipe, 500 ppm (formulation 60 times), contact 10 min): <100 CPU/mL | number of infectious viruses ([4]; solution from wet wipe, 750 ppm (formulation 40 times), contact 1 min): <100 CPU/mL | number of infectious viruses ([4]; solution from wet wipe, 750 ppm (formulation 40 times), contact 5 min): <100 CPU/mL | number of infectious viruses ([4]; solution from wet wipe, 750 ppm (formulation 40 times), contact 10 min): <100 CPU/mL | number of infectious viruses ([4]; solution from wet wipe, 1000 ppm (formulation 30 times), contact 1 min): <100 CPU/mL | number of infectious viruses ([4]; solution from wet wipe, 1000 ppm (formulation 30 times), contact 5 min): <100 CPU/mL | number of infectious viruses ([4]; solution from wet wipe, 1000 ppm (formulation 30 times), contact 10 min): <100 CPU/mL | number of infectious viruses ([4]; solution from wet wipe, 3000 ppm (formulation 10 times), contact 1 min): <100 CPU/mL | number of infectious viruses ([4]; solution from wet wipe, 3000 ppm (formulation 10 times), contact 5 min): <100 CPU/mL | number of infectious viruses ([4]; solution from wet wipe, 3000 ppm (formulation 10 times), contact 10 min): <100 CPU/mL | number of infectious viruses ([4]; wet wipe stored Day 0, 1000 ppm, contact 1 min): <100 | number of infectious viruses ([4]; wet wipe stored Day 0, 1000 ppm, contact 5 min): <100 | number of infectious viruses ([4]; wet wipe stored Day 0, 1000 ppm, contact 10 min): <100 | number of infectious viruses ([4]; wet wipe stored Day 0, 3000 ppm, contact 1 min): <100 | number of infectious viruses ([4]; wet wipe stored Day 0, 3000 ppm, contact 5 min): <100 | number of infectious viruses ([4]; wet wipe stored Day 0, 3000 ppm, contact 10 min): <100 | number of infectious viruses ([4]; wet wipe stored Day 3, 1000 ppm, contact 1 min): Many | number of infectious viruses ([4]; wet wipe stored Day 3, 1000 ppm, contact 5 min): Many | number of infectious viruses ([4]; wet wipe stored Day 3, 1000 ppm, contact 10 min): Many | number of infectious viruses ([4]; wet wipe stored Day 3, 3000 ppm, contact 1 min): Many | number of infectious viruses ([4]; wet wipe stored Day 3, 3000 ppm, contact 5 min): Many | number of infectious viruses ([4]; wet wipe stored Day 3, 3000 ppm, contact 10 min): Many | number of infectious viruses ([5]; pH 5.5, 25 ppm, contact 0 min): 5.4 ± 1.7 log CPU/mL | number of infectious viruses ([5]; pH 5.5, 50 ppm, contact 0 min): 5.4 ± 1.7 log CPU/mL | number of infectious viruses ([5]; pH 5.5, 100 ppm, contact 0 min): 5.4 ± 1.7 log CPU/mL | number of infectious viruses ([5]; pH 5.5, 200 ppm, contact 0 min): 5.4 ± 1.7 log CPU/mL | number of infectious viruses ([5]; pH 5.5, 200 ppm, contact 5 min): 3.7 ± 1.8 log CPU/mL | number of infectious viruses ([5]; pH 5.5, 200 ppm, contact 10 min): 2.6 ± 1.8 log CPU/mL | number of infectious viruses ([5]; pH 5.5, 400 ppm, contact 0 min): 5.4 ± 1.7 log CPU/mL | number of infectious viruses ([5]; pH 5.5, 400 ppm, contact 1 min): <2.0 log CPU/mL | number of infectious viruses ([5]; pH 5.5, 400 ppm, contact 5 min): <2.0 log CPU/mL | number of infectious viruses ([5]; pH 5.5, 400 ppm, contact 10 min): <2.0 log CPU/mL | number of infectious viruses ([5]; pH 6.5, 25 ppm, contact 0 min): 6.1 ± 2.1 log CPU/mL | number of infectious viruses ([5]; pH 6.5, 50 ppm, contact 0 min): 6.1 ± 2.1 log CPU/mL | number of infectious viruses ([5]; pH 6.5, 100 ppm, contact 0 min): 6.1 ± 2.1 log CPU/mL | number of infectious viruses ([5]; pH 6.5, 200 ppm, contact 0 min): 6.1 ± 2.1 log CPU/mL | number of infectious viruses ([5]; pH 6.5, 200 ppm, contact 5 min): 3.3 ± 2.9 log CPU/mL | number of infectious viruses ([5]; pH 6.5, 200 ppm, contact 10 min): <2.0 log CPU/mL | number of infectious viruses ([5]; pH 6.5, 400 ppm, contact 0 min): 6.1 ± 2.1 log CPU/mL | number of infectious viruses ([5]; pH 6.5, 400 ppm, contact 1 min): <2.0 log CPU/mL | number of infectious viruses ([5]; pH 6.5, 400 ppm, contact 5 min): <2.0 log CPU/mL | number of infectious viruses ([5]; pH 6.5, 400 ppm, contact 10 min): <2.0 log CPU/mL | number of infectious viruses ([5]; pH 7.5, 25 ppm, contact 0 min): 5.2 ± 2.6 log CPU/mL | number of infectious viruses ([5]; pH 7.5, 50 ppm, contact 0 min): 5.2 ± 2.6 log CPU/mL | number of infectious viruses ([5]; pH 7.5, 50 ppm, contact 5 min): 4.4 ± 1.8 log CPU/mL | number of infectious viruses ([5]; pH 7.5, 50 ppm, contact 10 min): <2.0 log CPU/mL | number of infectious viruses ([5]; pH 7.5, 100 ppm, contact 0 min): 5.2 ± 2.6 log CPU/mL | number of infectious viruses ([5]; pH 7.5, 100 ppm, contact 5 min): 3.4 ± 1.8 log CPU/mL | number of infectious viruses ([5]; pH 7.5, 100 ppm, contact 10 min): <2.0 log CPU/mL | number of infectious viruses ([5]; pH 7.5, 200 ppm, contact 0 min): 5.2 ± 2.6 log CPU/mL | number of infectious viruses ([5]; pH 7.5, 200 ppm, contact 1 min): 2.5 ± 1.8 log CPU/mL | number of infectious viruses ([5]; pH 7.5, 200 ppm, contact 5 min): <2.0 log CPU/mL | number of infectious viruses ([5]; pH 7.5, 200 ppm, contact 10 min): <2.0 log CPU/mL | number of infectious viruses ([5]; pH 7.5, 400 ppm, contact 0 min): 5.2 ± 2.6 log CPU/mL | number of infectious viruses ([5]; pH 7.5, 400 ppm, contact 1 min): <2.0 log CPU/mL | number of infectious viruses ([5]; pH 7.5, 400 ppm, contact 5 min): <2.0 log CPU/mL | number of infectious viruses ([5]; pH 7.5, 400 ppm, contact 10 min): <2.0 log CPU/mL | number of infectious viruses ([5]; pH 8.5, 25 ppm, contact 0 min): 4.7 ± 2.8 log CPU/mL | number of infectious viruses ([5]; pH 8.5, 50 ppm, contact 0 min): 4.7 ± 2.8 log CPU/mL | number of infectious viruses ([5]; pH 8.5, 50 ppm, contact 1 min): 4.6 ± 3.2 log CPU/mL | number of infectious viruses ([5]; pH 8.5, 50 ppm, contact 5 min): 3.5 ± 2.1 log CPU/mL | number of infectious viruses ([5]; pH 8.5, 50 ppm, contact 10 min): <2.0 log CPU/mL

Reference: US20160113282A1 (HONBU SANKEI CO., LTD., priority 2013, published 2016)
